Reference: patent US8222218B2, “Cyclopropanated carbohydrates” (Seton Hall University, priority 2008, dated 2012)
Read-outs that look alike come from different tables or passages of the source.

What was measured:
Assay type in all cases: in vivo
MES-induced seizures = experiment: Maximal Electroshock Seizure (MES) test, mice; settings: mice, i.p.; for MES 30 0.5 h (animals protected/tested) / MES 30 4 h (animals protected/tested) / responders at 30 mg/kg: 30 mg/kg; for MES 100 0.5 h (animals protected/tested) / MES 100 4 h (animals protected/tested) / responders at 100 mg/kg: 100 mg/kg; for MES 300 0.5 h (animals protected/tested) / MES 300 4 h (animals protected/tested) / responders at 300 mg/kg: 300 mg/kg; for responders at 30 mg/kg / responders at 100 mg/kg / responders at 300 mg/kg: Mus musculus, ip
From the text: The MES test is a model for generalized tonic-clonic seizures. The seizures are highly reproducible and electrophysiologically consistent with human seizures. The test provides information about a compound's ability to prevent the spread of seizure when all neuronal circuits of the brain are maximally active. 60 Hz of alternating current (50 mA in mice, 150 mA in rats) is applied for 2 seconds via corneal electrodes that have been treated with an electrolyte solution containing an anesthetic (0.5% tetracaine HCl). Mice are tested at a variety of intervals after an i.p. injection of […] solution of the test compound (commonly in a 0.5% solution of methylcellulose) at 30, 100, and 300 mg/kg doses. Rats are examined after a 30 mg/kg (per os, p.o.) dose that is applied in a volume of 0.04 mL/g. An animal is considered “protected” from MES-induced seizures upon removal of the hind limb extensor component of the seizure.
(§1) Male and female albino CF1 mice (18-25 g, Charles River, Portage, Mich.) and male albino Sprague-Dawley rats (275-300 g, kindling test; 100-150 g all other tests; Charles River, Raleigh, N.C.) were used as experimental animals.

[1] = system: metrazole-induced clonic seizures; experiment: Subcutaneous Metrazole Seizure Threshold Test (scMET), mice; settings: mice; for scMET 30 0.4 h (animals protected/tested) / scMET 30 0.5 h (animals protected/tested) / responders at 30 mg/kg: 30 mg/kg; for scMET 100 0.4 h (animals protected/tested) / scMET 100 0.5 h (animals protected/tested) / responders at 100 mg/kg: 100 mg/kg; for scMET 300 0.4 h (animals protected/tested) / scMET 300 0.5 h (animals protected/tested) / responders at 300 mg/kg: 300 mg/kg; for responders at 30 mg/kg / responders at 100 mg/kg / responders at 300 mg/kg: Mus musculus, sc
Experimental: The subcutaneous injection of metrazole, which is a convulsant, produces clonic seizures in laboratory animals. The scMET test is designed to identify compounds that raise the seizure threshold of an animal. Mice are pretreated with test compound at 30, 100, and 300 mg/kg doses in a similar manner to the MES test. Rats are treated with a 50 mg/kg dose (p.o.). At the previously determined TPE of the test compound, the dose of metrazole that will induce convulsions in 97% of animals (CD97: 85 mg/kg mice) is injected into the loose fold of the skin in the midline of the neck. The animals are placed in isolation cages to minimize stress and observed for the next 30 minutes for the presence or absence of seizures. An episode of clonic spasms (approximately 3-5 seconds) of the fore and/or hindlimbs, jaws or vibrissae is taken as the endpoint.
as §1

[2] = Acute toxicity, minimal motor impairment (rotorod), mice; settings: mice, rotorod; for TOX 30 0.5 h (animals toxic/tested) / TOX 30 4 h (animals toxic/tested): 30 mg/kg; for TOX 100 0.5 h (animals toxic/tested) / TOX 100 4 h (animals toxic/tested): 100 mg/kg; for TOX 300 0.5 h (animals toxic/tested) / TOX 300 4 h (animals toxic/tested): 300 mg/kg
Experimental: Toxicity was measured using the minimal motor impairment test described below.
Animals are monitored for overt signs of impaired neurological or muscular function to assess a compound's toxicity. In mice, the rotorod procedure is used to disclose minimal muscular or neurological impairment. When a mouse is placed on a rotating rod (6 rpm), the animal can maintain its equilibrium for long periods of time. The animal is considered toxic if it falls off the rotating rod three times during a 1 minute period. In rats, minimal motor deficit is indicated by ataxia, which is manifested by an abnormal, uncoordinated gait.

[3] = 0.5 h, read-out: MES 30 0.5 h (animals protected/tested)
[4] = 4 h, read-out: MES 30 4 h (animals protected/tested)
[5] = 0.5 h, read-out: MES 100 0.5 h (animals protected/tested)
[6] = 4 h, read-out: MES 100 4 h (animals protected/tested)
[7] = 0.5 h, read-out: MES 300 0.5 h (animals protected/tested)
[8] = 4 h, read-out: MES 300 4 h (animals protected/tested)
[9] = 0.4 h, read-out: scMET 30 0.4 h (animals protected/tested)
[10] = 0.5 h, read-out: scMET 30 0.5 h (animals protected/tested)
[11] = 0.4 h, read-out: scMET 100 0.4 h (animals protected/tested)
[12] = 0.5 h, read-out: scMET 100 0.5 h (animals protected/tested)
[13] = 0.4 h, read-out: scMET 300 0.4 h (animals protected/tested)
[14] = 0.5 h, read-out: scMET 300 0.5 h (animals protected/tested)

Structure (SMILES)	MES 30 0.5 h (animals protected/tested) (MES-induced seizures; 0.5 h)	MES 30 4 h (animals protected/tested) (MES-induced seizures; 4 h)	TOX 30 0.5 h (animals toxic/tested) [2]	TOX 30 4 h (animals toxic/tested) [2]	TOX 100 0.5 h (animals toxic/tested) [2]	TOX 100 4 h (animals toxic/tested) [2]	TOX 300 0.5 h (animals toxic/tested) [2]	TOX 300 4 h (animals toxic/tested) [2]	responders at 30 mg/kg (MES-induced seizures; [3])	responders at 30 mg/kg (MES-induced seizures; [4])	responders at 100 mg/kg (MES-induced seizures; [5])	responders at 100 mg/kg (MES-induced seizures; [6])	responders at 300 mg/kg (MES-induced seizures; [7])	responders at 300 mg/kg (MES-induced seizures; [8])	responders at 30 mg/kg [1, 9]	responders at 30 mg/kg [1, 10]	responders at 100 mg/kg [1, 11]	responders at 100 mg/kg [1, 12]	responders at 300 mg/kg [1, 13]	responders at 300 mg/kg [1, 14]	also measured
CCOC(=O)C1[C@@H]2[C@@H](OS(=O)(=O)N(C)C)[C@@H]3OC(C)(C)OC[C@H]3O[C@H]12 (stereo partly drawn) [Compound 8a, Ethyl (4aR,5aS,6aS,7R,7aR)-7-[(dimethlylsulfamoyl)oxy]-2,2-dimethylhexahydro-4H-cyclopropa[5,6]pyrano[3,2-d][1,3]dioxine-6-carboxylate]	0/1	0/1	0/4	0/2	0/8	0/4	1/4	0/2	–	–	–	–	–	–	–	–	–	–	–	–	MES 100 0.5 h (animals protected/tested) (MES-induced seizures; 0.5 h): 0/3; MES 100 4 h (animals protected/tested) (MES-induced seizures; 4 h): 0/3; MES 300 0.5 h (animals protected/tested) (MES-induced seizures; 0.5 h): 0/1; MES 300 4 h (animals protected/tested) (MES-induced seizures; 4 h): 0/1; scMET 30 0.4 h (animals protected/tested) ([1]; 0.4 h): 0/1; scMET 30 0.5 h (animals protected/tested) ([1]; 0.5 h): 0/1; scMET 100 0.4 h (animals protected/tested) ([1]; 0.4 h): 0/1; scMET 100 0.5 h (animals protected/tested) ([1]; 0.5 h): 0/1; scMET 300 0.4 h (animals protected/tested) ([1]; 0.4 h): 0/1; scMET 300 0.5 h (animals protected/tested) ([1]; 0.5 h): 0/1
COC(=O)[C@H]1C2O[C@@H]3CO[Si](C(C)(C)C)(C(C)(C)C)O[C@@H]3[C@H](O)[C@@H]21 (stereo partly drawn) [Compound 14b, (1R,1as,2R,2aR,6aR)-4,4-di-tert-butyl-2-hydroxy-hexahydro-3,5,7-trioxa-4-silacyclopropa[b]naphthalene-1-carboxylic acid (S)-methyl ester]	0/1	0/1	0/4	0/2	2/8	0/4	4/4	0/2	–	–	–	–	–	–	–	–	–	–	–	–	MES 100 0.5 h (animals protected/tested) (MES-induced seizures; 0.5 h): 0/3; MES 100 4 h (animals protected/tested) (MES-induced seizures; 4 h): 0/3; MES 300 0.5 h (animals protected/tested) (MES-induced seizures; 0.5 h): 0/1; MES 300 4 h (animals protected/tested) (MES-induced seizures; 4 h): 0/1; scMET 30 0.4 h (animals protected/tested) ([1]; 0.4 h): 0/1; scMET 30 0.5 h (animals protected/tested) ([1]; 0.5 h): 0/1; scMET 100 0.4 h (animals protected/tested) ([1]; 0.4 h): 0/1; scMET 100 0.5 h (animals protected/tested) ([1]; 0.5 h): 0/1; scMET 300 0.4 h (animals protected/tested) ([1]; 0.4 h): 0/1; scMET 300 0.5 h (animals protected/tested) ([1]; 0.5 h): 0/1
COC(=O)C1[C@@H]2[C@@H](O)[C@@H]3OC(C)(C)OC[C@H]3O[C@H]12 (stereo partly drawn) [Compound 10, Methyl (4aR,5aS,6aR,7R,7aS)-7-hydroxy-2,2-dimethylhexahydro-4H-cyclopropa[5,6]pyrano[3,2-d][1,3]dioxine-6-carboxylate]	–	–	0/4	0/2	0/8	0/4	0/4	0/2	0%	0%	0%	0%	0%	0%	0%	0%	0%	0%	0%	0%	–
CCOC(=O)[C@@H]1[C@H]2O[C@@H]3COC(C)(C)O[C@H]3[C@H](OC)[C@H]21 [Compound 9, Ethyl (4aR,5aS,6aS,7R,7aS)-7-methoxy-2.2-dimethylhexahydro-4H-cyclopropa[5,6]pyrano[3,2-d][1,3]dioxine-6-carboxylate]	–	–	0/4	0/2	0/8	0/4	0/4	0/2	0%	0%	0%	0%	0%	0%	0%	0%	0%	0%	0%	0%	–
CCOC(=O)C1[C@@H]2[C@@H](O)[C@@H]3O[C@H](c4ccc(C(C)(C)C)cc4)OC[C@H]3O[C@H]12 (stereo partly drawn) [Compound 20c, Ethyl (2R,4aR,5aS,6aR,7R,7aS)-2-(4-tert-butylphenyl)-7-hydroxyhexahydro-4H-cyclopropa[5,6]pyrano[3,2-d][1,3]dioxine-6-carboxylate]	–	–	0/4	0/2	0/8	0/4	0/4	0/2	0%	0%	0%	0%	0%	0%	0%	0%	0%	0%	0%	0%	–
